# Reference: publication doi:10.1101/2022.03.12.484055v1 (biorxiv, 2022)
# Target: T1, ASIC1 (hASIC1; ASIC1a as primary isoform in tsA-201 cells) (Homo sapiens, UniProt P78348)
# T1 sequence (P78348 1-528): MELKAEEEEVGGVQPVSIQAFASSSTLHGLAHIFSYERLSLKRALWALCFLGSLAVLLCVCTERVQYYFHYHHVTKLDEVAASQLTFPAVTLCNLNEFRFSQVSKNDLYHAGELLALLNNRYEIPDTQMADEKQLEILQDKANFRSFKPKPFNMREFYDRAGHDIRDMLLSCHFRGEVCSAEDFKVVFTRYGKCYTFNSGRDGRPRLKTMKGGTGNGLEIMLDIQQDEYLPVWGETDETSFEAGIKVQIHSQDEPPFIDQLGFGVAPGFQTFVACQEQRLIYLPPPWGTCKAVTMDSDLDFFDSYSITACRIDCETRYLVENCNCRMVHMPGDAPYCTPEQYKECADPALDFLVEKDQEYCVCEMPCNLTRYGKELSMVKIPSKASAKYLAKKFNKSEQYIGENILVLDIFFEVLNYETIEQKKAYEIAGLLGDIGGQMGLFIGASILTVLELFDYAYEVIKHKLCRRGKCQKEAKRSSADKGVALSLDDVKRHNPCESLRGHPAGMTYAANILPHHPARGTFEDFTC
# Assay: automated patch clamp, single concentration
# Assay type: cell-based
# Settings: tsA201, read-out: % inhibition @ 30 µM
row,Structure (SMILES),inhibition at 30 µM [%]
1,"COc1ccc2oc(-c3nc(C(=O)NC(=N)N)c(N)nc3N)cc2c1 [compound 29, 29]",82 ± 1
2,"CC(C)(C)c1ccc2oc(-c3nc(C(=O)NC(=N)N)c(N)nc3N)cc2c1 [compound 21, 21]",71 ± 2
3,"N=C(N)NC(=O)c1nc(-c2cc3cc(F)ccc3o2)c(N)nc1N [compound 23, 23]",82 ± 1
4,"N=C(N)NC(=O)c1nc(-c2cc3cc(F)cc(F)c3o2)c(N)nc1N [compound 35, 35]",76 ± 3
5,"N=C(N)NC(=O)c1nc(-c2ccco2)c(N)nc1N [compound 14, 14]",75 ± 1

# Target: T1, ASIC1 (hASIC1; ASIC1a as primary isoform in tsA-201 cells)
# Assay: cell-based
# Settings: tsA201, read-out: % inhibition @ 30 µM
row,Structure (SMILES),inhibition at 30 µM [%]
1,"N=C(N)NC(=O)c1nc(-c2cc3ccccc3o2)c(N2CCCC2)nc1N [compound 59, 59]",59
2,"N=C(N)NC(=O)c1nc(-c2cc3ccccc3o2)c(NCCc2ccccc2)nc1N [compound 66, 66]",31
3,"N=C(N)NC(=O)c1nc(-c2cc3ccccc3o2)c(N2CCCCC2)nc1N [compound 60, 60]",54
4,"CCN(c1nc(N)c(C(=O)NC(=N)N)nc1-c1cc2ccccc2o1)C(C)C [compound 62, 62]",46
5,"N=C(N)NC(=O)c1nc(-c2cc3ccccc3o2)c(NC2CCCCCC2)nc1N [compound 64, 64]",10
6,"N=C(N)NC(=O)c1nc(-c2cc3ccccc3o2)c(NC2CCCC2)nc1N [compound 63, 63]",22
7,"N=C(N)NC(=O)c1nc(-c2cc3ccccc3o2)c(NCc2ccccc2)nc1N [compound 65, 65]",39
